“And” between values parts separate entries of the source, which are not always exact repeats. Equal entries are not always repeated. Where two headings read alike, the source gives them in different places. Bridge positions count the residues as written; N and C are the ends. Square brackets hold non-standard residues; d marks the D form. Peptide text beside a SMILES is read from it. * marks the point of attachment. Benzoyl(4-B(OH)2) = O=C(c1ccc(B(O)O)cc1)*; PEG6 = NCCOCCOCCOCCOCCOCCOCCC(=O)O
Legend:
[1] = test system: fibronectin; assay: SDS‐PAGE of fibronectin incubated with boronic acid dye; format: binding; settings: physiological pH; distinct fluorescence at 280 kDa
Description: Figure 1 A) Fluorescent microscopy of CDM. Green channel: Staining with 10 μM FL2 is shown. Red channel: Staining with a primary antibody (rabbit; Anti‐fibronectin) and secondary antibody (Anti‐Rabbit IgG, CFTM633) is shown. Third channel: Both channels are merged. The negative control was only stained with the antibodies. Every CDM with FL2 was washed several times with either pH 4.1, pH 7.4, or pH 9.4. B) SDS‐PAGE of fibronectin incubated with FL2 under different pH conditions. (1) FL2 incubation at pH 7.4. (2) FL2 incubation at pH 4.1. (3) Coomassie stain for fibronectin. M = molecular standard.
For quantification, fibronectin was immobilized on Enzyme‐Linked Immunosorbent Assay (ELISA) plates before incubation with FL2. Surfaces were similarly treated with acidic, neutral, and basic conditions, and the remaining fluorescence of FL2 was quantified with each washing step (Figure S1, Supporting Information).
SDS‐PAGE was performed as described.^[ [27] ^] For the separation of small molecular weight peptides, tricine‐gel‐electrophoresis (Novex 10–20% Tricine Gel, 1.0 mm × 12 well, Invitrogen by Thermo Fisher Scientific) was performed, using Mini Gel Tanks from Invitrogen under standardized conditions. […] The gel was destained with demineralized water or destaining buffer (10% 10x ws buffer, 20% methanol, 70% Mili‐Q water) and captured using a Gel‐Reader from BioRad.

[2] = molecular target: T1, myostatin (Homo sapiens, UniProt O14793); assay: Myostatin inhibition assay, SMAD luciferase reporter in HEK SBE cells; format: cell-based
T1 construct: purchased Bio-techne (Minneapolis)
T1 sequence (O14793 267-375): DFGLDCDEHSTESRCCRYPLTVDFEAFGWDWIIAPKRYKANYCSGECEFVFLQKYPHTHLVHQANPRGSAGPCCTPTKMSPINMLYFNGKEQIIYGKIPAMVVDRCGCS
Description: D) Myostatin inhibition by different MI peptides as determined via SMAD luciferase reporter with HEK SBE cells. 100 % activity corresponds to 4 nM myostatin. Data are shown as mean ± STDEV (n = 3).
The inhibition of all three MI peptides by myostatin was tested using a reporter gene luciferase assay in HEK293 cells, which monitored SMAD phosphorylation in response to varying myostatin concentrations, as described.^[ [24] ^]
HEK SBE cells (HEK‐293 cells stably transfected with a pGl3ti vector containing a Smad binding element at the promoter of the firefly luciferase gene and a hygromycin resistance gene) were used as previously described.^[ [24] ^] […] The total protein concentration of each sample was determined by the Bradford Protein concentration assay. […] The absorbance was measured with a plate reader (Infinite 200 PRO, Tecan). […] The injector of the plate reader was primed with luciferase assay reagent. The plate reader was programmed to automatically inject 100 μL of the reagent into each well and immediately measure the luminescence for 10 s. […] Relative light units per μg of total protein were calculated to analyze the inhibition of myostatin by all three MI peptides.

[3] = ARS competition assay with D‐glucamine; format: binding; settings: for Interaction with D‐glucamine in ARS competition assay: fluorescence decay at 572 nm, rising D‐glucamine concentrations, pH 7.4, n = 3; for Association constant K eq with D‐glucamine: ARS competition assay, pH 7.4, 0.1 M phosphate buffer, fluorescence at 572 nm, average of triplicate runs
Description: (§1) Affinity toward different monosaccharides was tested quantitatively by an Alizarin Red S (ARS) competition assay. ARS spectroscopic properties change upon the formation of a boronic ester with a boronic acid, resulting in fluorescence.^[ [4] ^, [19] ^] Additionally, the absorbance maximum of ARS shifts to shorter wavelengths upon ester formation, resulting in a color shift from red to orange, which facilitates the recognition of the formed bond (Figures S3 and S4, Supporting Information).
(§2) The assay was performed on a TECAN reader, Infinite M Plex, set up with 96‐well plates (Thermo Scientific, Nr. 137,103).

[4] = cited from earlier work
Description: Binding constants of boronic acids and diols have been previously linked to their pKA and pH environment, with phenylboronic acid (pKA = 8.8) showing a binding optimum with ARS at a pH of 7 (1.1 mM^−1).^[ [20] ^]

[5] = test system: cell‐derived decellularized extracellular matrices (CDMs) from NIH‐3T3 fibroblasts; assay: Fluorescence imaging of CDMs with CPBA‐NQEQVSPL‐5/6‐carboxyrhodamine 110; format: binding, murine; settings: fluorescence microscopy
Description: The hydrophilic PEG6 linker within the peptide structure was crucial to ensure sufficient water solubility.
For visualization of fibronectin, the CDMs were first blocked using 1x Roti‐Block for 60 min at RT and washed once with PBS. A combination of Rabbit Anti‐Fibronectin antibody (F3648) (1:400 in PBS, overnight at 4 °C) and Anti‐rabbit IgG (H + L), F(ab’)2 Fragment (Alexa Fluor 647 Conjugate) 4414 (1:200 in PBS, 90 min at RT) was used. […] The dye was removed, and the matrix was washed several times with one of […] different buffers (carbonate/bicarbonate, pH 9.4; 1x PBS, pH 7.4; 1x PBS, pH 8.0, and sodium‐acetate, pH 4.1). Images were taken on an Axio Observer.Z1 microscope equipped with a 63x Plan‐Apochromat […]/1.40 Oil DIC M77 objective (Zeiss), 38 HE Green Fluorescent Reflector (λex = 450–490 nm λem = 500–550 nm), 50 Cy5 Reflector (λex = 625–655 nm λem = 665–715 nm) and a mercury vapor short‐arc lamp.
Figure S9: (A) Fluorescent microscopy of CDM. Green channel: Staining with CBPA-[…]-5/6-Carboxyrhodamine
110 is shown. Red channel: Staining with a primary antibody (rabbit; Anti-fibronectin) and secondary antibody (Anti-Rabbit
IgG, AF647) is shown. Third channel: Both channels are merged. The negative control was only stained with the antibodies.
Every CDM with the CPBA-Peptide was washed several times with either pH 4.1, pH 7.4, pH 8.0 or pH 9.4. […]

[6] = ARS competition assay with D‐(‐)‐fructose; format: binding; settings: for Association constant K eq with D‐(‐)‐fructose: ARS competition assay, pH 7.4, 0.1 M phosphate buffer, fluorescence at 572 nm, average of triplicate runs
Description: as §1, §2

[7] = UV‐VIS spectra, shift of ARS absorbance maximum upon ester formation; format: binding; settings: UV‐VIS spectra in the presence of ARS
Source text: As a positive control, we used 4‐(dihydroxyboryl)benzoic acid coupled to the hydrophilic polymer PEG of 2000 Da, with a similar molecular weight. […] We continued to examine the binding of CBPA‐PEG‐MI to ARS in the presence of D‐glucamine, D‐(‐)‐fructose and D‐mannitol as a competition assay as outlined above (Figure 4B, Figure S11, Supporting Information).
Figure S10: UV-VIS spectra of various peptides bound to ARS or glucamine. CPBA was used as a positive control, while ARS serves as a negative control. (A) UV-VIS-spectra of the peptide CPBA-MI in the presence of ARS- or glucamine. (B) UV-VIS-spectra of the peptide CPBA-PEG-MI in the presence of ARS- or glucamine. (C) UV-VIS-spectra of the peptide Acetyl-MI in the presence of ARS- or glucamine.
Figure S11: Fluorescence decay at 572 nm measured in an ARS competition assay with CPBA-PEG-MI and the negative control acetyl-MI in the presence of rising concentrations of fructose (A) and mannitol (B) as model saccharides at pH 7.4.
Data are shown as mean ± STDEV (n = 3). […]

[8] = ARS competition assay with D‐mannitol; format: binding; settings: for Association constant K eq with D‐mannitol: ARS competition assay, pH 7.4, 0.1 M phosphate buffer, fluorescence at 572 nm, average of triplicate runs
Description: as §1, §2

[9] = Alizarin Red S (ARS) assay, association of boronic acid with ARS; format: binding; settings: for Association constant K eq with ARS: ARS assay, pH 7.4, 0.1 M phosphate buffer, fluorescence at 572 nm, average of triplicate runs
Description: Affinity toward different monosaccharides was tested quantitatively by an Alizarin Red S (ARS) competition assay. ARS spectroscopic properties change upon the formation of a boronic ester with a boronic acid, resulting in fluorescence.^[ [4] ^, [19] ^] […] The affinity of aryl boronic acid to 1,2‐diols is known to be dependent on modifications of the underlying benzene.

[10] = fluorescence decay at 572 nm, rising sugar concentrations, pH 7.4, n = 3

O=C1c2ccccc2C(=O)c2c1cc(S(=O)(=O)O)c(O)c2O [ARS, Alizarin Red S]
Binding to fibronectin after gel electrophoresis [1]: confirmed

CSCC[C@@H]1NC(=O)[C@H](Cc2c[nH]c3ccccc23)NC(=O)[C@@H]2CCCN2C(=O)[C@H](Cc2c[nH]c3ccccc23)NC(=O)[C@H](CCCNC(=N)N)NC(=O)[C@H]([C@@H](C)O)NC(=O)[C@@H](NC(=O)[C@H](CCC(N)=O)NC(=O)CNC(=O)[C@H](CCC(N)=O)NC(=O)[C@@H](NC(=O)[C@H](C)NC(=O)[C@@H](NC(C)=O)C(C)C)[C@@H](C)O)CSSC[C@@H](C(=O)N2CCC[C@H]2C(=O)N2CCC[C@H]2C(=O)N[C@@H](CCC(N)=O)C(=O)NCC(=O)N[C@@H](Cc2c[nH]c3ccccc23)C(=O)NCC(=O)NCCOCCOCCOCCOCCOCCOCCC(N)=O)NC1=O [Acetyl‐MI] (Ac-VATQGQCTRWPWMCPPQGWG[PEG6]-NH2; disulfide 7-14)
IC50 ([2]; HEK SBE luciferase reporter cells, 4 nM myostatin, 48 h, 37 °C, n = 3, read-out: IC50, inhibition of myostatin‐induced SMAD phosphorylation): 1700 nM
Interaction with D‐glucamine in ARS competition assay [3]: nonbinding

OB(O)c1ccccc1 [phenylboronic acid]
pKA [4]: 8.8
Binding constant with ARS at binding optimum ([4]; pH of 7): 1.1 mM⁻¹

CPBA–NQEQVSPL–5/6‐carboxyrhodamine 110
pH‐dependent binding to glycan structures of the ECM compared with FL2 ([5]; 100 μM, three hours at pH 9.4, washed at pH 4.1, 7.4, 8.0 or 9.4): comparable pH‐dependent binding behavior
Binding to CDM at pH 7.4 compared with FL2 ([5]; pH 7.4 wash): quantitatively weaker

CSCC[C@@H]1NC(=O)[C@H](Cc2c[nH]c3ccccc23)NC(=O)[C@@H]2CCCN2C(=O)[C@H](Cc2c[nH]c3ccccc23)NC(=O)[C@H](CCCNC(=N)N)NC(=O)[C@H]([C@@H](C)O)NC(=O)[C@@H](NC(=O)[C@H](CCC(N)=O)NC(=O)CNC(=O)[C@H](CCC(N)=O)NC(=O)[C@@H](NC(=O)[C@H](C)NC(=O)[C@@H](NC(=O)CCOCCOCCOCCOCCOCCOCCNC(=O)c2ccc(B(O)O)cc2)C(C)C)[C@@H](C)O)CSSC[C@@H](C(=O)N2CCC[C@H]2C(=O)N2CCC[C@H]2C(=O)N[C@@H](CCC(N)=O)C(=O)NCC(=O)N[C@@H](Cc2c[nH]c3ccccc23)C(=O)NCC(=O)NCCOCCOCCOCCOCCOCCOCCC(N)=O)NC1=O [CPBA‐PEG‐MI] ({Benzoyl(4-B(OH)2)-PEG6}-VATQGQCTRWPWMCPPQGWG[PEG6]-NH2; disulfide 7-14)
Displacement of ARS from the peptide complex by D‐(‐)‐fructose [6, 10]: not able to displace ARS
IC50 [2]: 1500 nM
Interaction with D‐glucamine in ARS competition assay [3]: strongest interaction
Shift of the absorbance maximum of ARS upon ester formation [7]: shift of the absorbance maximum of ARS to shorter wavelengths
Displacement of ARS from the peptide complex by D‐mannitol [8, 10]: not able to displace ARS

NQEQVSPL [CPBA‐peptide]
Association constant K eq with D‐(‐)‐fructose [6]: 0.29 ± 0.0 mM⁻¹
Association constant K eq with D‐glucamine [3]: 3.87 ± 0.7 mM⁻¹
Association constant K eq with D‐mannitol [8]: 0.22 ± 0.0 mM⁻¹
Association constant K eq with ARS [9]: 2.35 ± 0.1 mM⁻¹
Association constant with ARS relative to unconjugated CPBA ([9]; pH 7.4, CPBA‐peptide versus CPBA): 1.6 fold

O=C(O)c1ccc(B(O)O)cc1 [CPBA, 4‐Carboxy‐phenyl‐boronic acid, reference compound]
Association constant K eq with D‐(‐)‐fructose [6]: 0.11 ± 0.0 mM⁻¹
Association constant K eq with D‐glucamine [3]: 2.09 mM⁻¹ and 2.09 ± 0.6 mM⁻¹
Association constant K eq with D‐mannitol [8]: 0.08 ± 0.0 mM⁻¹
Association constant K eq with ARS [9]: 1.46 ± 0.3 mM⁻¹
